Measurements published in patent US6461865B1, “Calreticulin-deficient cells” (priority 1997, dated 2002).

Columns and labels:
Assay type in all cases: cell-based, mouse
[1] = test system: ES cells; experiment: Cytosolic calcium measurement (fura-2) in ES cells; details: Ca2+-free medium
Procedure: It has been reported that calreticulin can regulate inositol 1,4,5-trisphosphate (InsP3)-mediated calcium signaling in Xenopus oocytes^9. To more specifically examine the role of calreticulin in the storage and mobilization of calcium from InsP3-sensitive stores, we challenged ES cells with lysophosphatidic acid (LPA, 100 nM), which induces InsP3 release12 via heterotrimeric G-protein -mediated activation of phospholipase C. […] The magnitude of this transient was indistinguishable in parental and clone 29 cells (FIG. 4b). […] These observations imply that the stores depleted by LPA represent a subset of the thapsigargin-sensitive compartment.
To measure cytosolic free calcium, the cells were loaded with fura-2 by incubation with 0.5-10 μM of the precursor acetoxymethyl ester for 20 min. at 37° C. Fura-2 ratio fluorescence measurements were performed on a Nikon Diaphot TMD microscope (Nikon Canada) equipped with a 100 W Xenon lamp, a shutter/rotating mirror/fiber optic assembly (RatioMaster, Photon Technologies), a Fluor 40x/1.3 oil-immersion objective and a high-sensitivity photometer (D-104, PTI) interfaced to a 386 computer (NEC) via a 12 bit A/D board (Labmaster, National Instruments). […] The intracellular concentration of fura-2 was measured at the isosbestic wavelength (360 nm) and compared to standards. […]

[2] = test system: wild-type ES cells; experiment: Serum-free cell attachment assay on fibronectin, wild-type ES cells; details: peptide 0.5-1 mg/ml, antiserum 10 μg/ml
Procedure: The adhesive capacities of the ES cell clones were assessed by quantitative cell attachment assays on fibronectin and laminin under serum-free conditions. […] ES cells lacking calreticulin also were impaired in their ability to adhere to anti-alpha5 beta1 integrin antibodies (FIG. 2a). The heterozygous clone (#34) was generally intermediate in its level of adhesion. None of the clones tested adhered to vitronectin (FIG. 2a). […] To ensure that the observed differences in cell adhesion were not due to differences in the level of expression of the relevant integrins, the cell surface levels of alpha5 beta1, alpha4, alpha6 and alphav beta3 integrins were assessed by flow cytometry. All clones tested expressed similar levels of integrin subunits (FIG. 2c).
Serum-free adhesion assays are described elsewhere^5. 0.5-1 mg/ml GRGDSP [SEQ ID No: 1] or GRGESP [SEQ. ID No: 2] peptide (Gibco/BRL), 10 μg/ml rabbit anti-fibronectin receptor (Gibco/BRL) or 10 μg/ml rat anti-alpha6 (GoH3, AMAC, Inc.) was added where indicated. For flow cytometric analysis of integrin expression, 1×10^6 cells were incubated on ice for 30 min. with primary antibody; anti-FNR, anti-VNR (Gibco/BRL), anti-alpha6 (GoH3) or anti-alpha429 in PBS/0.1% sodium azide/2.0% fetal bovine serum. […] Cells were fixed in PBS/1.0% paraformaldehyde, pelleted, resuspended in PBS and analyzed on a FACScan (Becton Dickinson Immunocytometry Systems).

[3] = test system: calreticulin knock-out ES cells; experiment: Adhesion of calreticulin knock-out ES cells to fibronectin
Procedure: FIG. 4E Adhesion assays to Fibronectin as in FIG. 6. Where indicated 100 nM LPA or 100 nM Tg and anti-FNR antiserum (10 μg/ml) were added. Open bars, parental ES cells; closed bars, knock-out ES cells. All data are means +/− SEM of at least 3 experiments. It is conceivable that a transient increase in cytosolic [Ca^2+] shortly after integrin ligand binding is an important part of normal receptor post-occupancy events (eg. increases in avidity, cytoskeletal reorganization). To examine this possibility, we tested whether stimulation of down-stream events in integrin ‘outside-in’ signaling within calreticulin-null cells could compensate for their adhesion defect. […] Although not shown in FIG. 4, the response to LPA was dose-dependent. […] Serum-free adhesion assays are described elsewhere^5. 0.5-1 mg/ml GRGDSP [SEQ ID No: 1] or GRGESP [SEQ. ID No: 2] peptide (Gibco/BRL), 10 μg/ml rabbit anti-fibronectin receptor (Gibco/BRL) or 10 μg/ml rat anti-alpha6 (GoH3, AMAC, Inc.) was added where indicated. For flow cytometric analysis of integrin expression, 1×10^6 cells were incubated on ice for 30 min. with primary antibody; anti-FNR, anti-VNR (Gibco/BRL), anti-alpha6 (GoH3) or anti-alpha429 in PBS/0.1% sodium azide/2.0% fetal bovine serum. […] Cells were fixed in PBS/1.0% paraformaldehyde, pelleted, resuspended in PBS and analyzed on a FACScan (Becton Dickinson Immunocytometry Systems).

`C/C=C(/C)C(=O)O[C@H]1C(C)=C2[C@H]([C@@H]1OC(=O)CCCCCCC)[C@@](C)(OC(C)=O)C[C@H](OC(=O)CCC)[C@@]1(O)[C@H]2OC(=O)[C@@]1(C)O` [thapsigargin] was tested, and the “Net Ca2+ release after prior LPA” value ([1]; added after LPA) was “induced a second, smaller burst of net Ca^2+ release”.

GRGDSP [GRGDSP peptides, (Gibco/BRL)] was tested, and the “Wild-type ES cell adhesion to fibronectin” value [2] was “inhibited adhesion to fibronectin”.

lysophosphatidic acid [LPA] was tested, and the “Adhesion of calreticulin knock-out cells to fibronectin” value ([3]; 100 nM) was “significantly restored”, the “Dose dependence of the adhesion response of calreticulin knock-out cells” value ([3]; data not shown in FIG. 4) was “dose-dependent” and the “Cytosolic [Ca2+]i transient” value ([1]; 100 nM, parental and clone 29 cells) was “induced a rapid [Ca2+]i transient”.
